Assay results reported in US6875576B2, “Method for evaluating therapeutic efficacy” (Kosan Biosciences, Inc., priority 2001, dated 2005).
Each block holds one compound with its values, some of them ahead of it.

Assays:
human motilin receptor [1] = biological target: T1, human motilin receptor (Homo sapiens, UniProt O43193); experiment: Efficacy index: ratio of desensitization value to potency value, motilin receptor and aequorin co-expressed; type: cell-based; details: ratio of desensitization value (IC50) to potency value (EC50); cells co-expressing motilin receptor and aequorin
T1 construct: expressed in transfected cells; host or cells: HEK293 (ATCC CRL-1573), transiently or stably transfected with pkos127-159 and pmtAEQ
T1 sequence (O43193 whole entry): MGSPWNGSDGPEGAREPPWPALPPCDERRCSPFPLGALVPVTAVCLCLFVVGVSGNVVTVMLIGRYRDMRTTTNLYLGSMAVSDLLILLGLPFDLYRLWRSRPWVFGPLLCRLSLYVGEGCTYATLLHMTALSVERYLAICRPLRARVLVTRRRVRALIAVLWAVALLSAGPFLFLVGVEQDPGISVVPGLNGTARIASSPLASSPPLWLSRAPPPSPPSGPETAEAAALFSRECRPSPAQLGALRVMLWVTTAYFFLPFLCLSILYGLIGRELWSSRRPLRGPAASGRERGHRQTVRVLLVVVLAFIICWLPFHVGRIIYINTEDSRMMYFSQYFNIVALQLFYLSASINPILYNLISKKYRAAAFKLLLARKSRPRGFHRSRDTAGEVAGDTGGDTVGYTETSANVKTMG
Excerpt: In one aspect of the present invention, the comparison of the potency value and the desensitization value is accomplished by calculating a ratio of the desensitization value to the potency value. This ratio is termed the “efficacy index”. […] In other words, because the concentration required for the desired biological response is also the concentration that induces desensitization, the compound is not likely to be therapeutically effective if the desired response is receptor activation. Under these circumstances, the concentration required for the desired biological response should be well below the concentration that induces desensitization. […]
(§1) Flasks containing HEK293 cells either transiently or stably expressing the motilin receptor and aequorin were used in receptor activation assays. Cells were grown to 80-100% confluence in T175 flasks containing MEMalpha medium with 10% v/v fetal bovine serum, harvested by trypsinization, and counted using a hemocytometer. […]
Stock solutions (20 mM) of test compounds were made in ethanol and diluted 100-fold into PBS. […] One of the injectors was used to add 100 uL of the cell suspension (˜5×10^4 to 10^5) to each well, and the bioluminescence response was measured over the course of 30-60 seconds. […] The F value of the cells to each test compound was calculated using equation 1, and data were fit to equation 2 to obtain EC50 values for the test compounds. […]

human motilin receptor [2] = biological target: T1, human motilin receptor; experiment: Motilin receptor activation assay (aequorin luminescence); type: cell-based; details: motilin receptor agonism
Excerpt: A gene encoding the target receptor is cloned and placed into a mammalian expression vector such as pcDNA3.1. The gene may be synthetic or naturally derived. Next, pmtAEQ, an aequorin expression plasmid available from Molecular Probes, and the receptor expression construct are transfected into HEK293 cells using a commercially available transfection kit such as Lipofectamine Plus (Gibco BRL). At this point, a stable cell line may be selected from the transfection mix using common techniques, or the heterologous mixture obtained from transient transfection may be used directly. […] A 100 uL aliquot of cells is added to each well, and following each addition, the integrated luminescence is measured for 30-60 seconds and is taken as the agonist response. Next, 100 uL of 1% triton X-100 in PBS is injected into each well, and the integrated luminescence is measured a second time over 30-60 seconds and is taken as the triton response. A value F is calculated as equaled to the agonist response divided by the sum of the agonist response and the triton response. […]
as §1

Acid stability = type: physicochemical; details: stomach environment
C3a receptor = biological target: T2, C3a receptor (Homo sapiens, UniProt Q16581); experiment: Ca2+ mobilization via FLIPR; type: cell-based
T2 construct: expressed in transfected cells; host or cells: HEK 293, transient transfection, with or without promiscuous G protein Galpha16
T2 sequence (Q16581 1-482): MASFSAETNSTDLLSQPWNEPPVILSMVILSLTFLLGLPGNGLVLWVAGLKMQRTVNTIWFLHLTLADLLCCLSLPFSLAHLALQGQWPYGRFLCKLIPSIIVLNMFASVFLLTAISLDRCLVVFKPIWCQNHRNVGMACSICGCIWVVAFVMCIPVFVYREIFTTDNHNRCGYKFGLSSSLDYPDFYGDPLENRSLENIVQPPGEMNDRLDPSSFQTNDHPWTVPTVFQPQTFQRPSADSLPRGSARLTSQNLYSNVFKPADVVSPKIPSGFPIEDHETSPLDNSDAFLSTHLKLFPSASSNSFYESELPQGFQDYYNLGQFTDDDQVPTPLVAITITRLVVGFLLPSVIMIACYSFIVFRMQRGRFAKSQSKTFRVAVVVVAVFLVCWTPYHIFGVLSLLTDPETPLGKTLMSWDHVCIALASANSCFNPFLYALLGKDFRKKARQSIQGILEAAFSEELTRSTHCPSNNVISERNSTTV
Protocol: 1. 24 h after receptor transfection harvest and plate cells into poly-D-lysine-coated 96-well black-walled/clear bottom microtiter plates (Becton Dickinson Labware) at 3×10^4 cells per well.
2. After 18 to 24 h aspirate off medium and add 100 μl of fresh EMEM containing 4 μM Fluo-3/AM (Molecular Probes; prepare stock solution at 2 mM in DMSO containing 20% pluronic acid), 0.1% BSA, and […] to each well and incubate for 1 h at 37° C.
3. Aspirate medium and replace with 100 μl of the same medium, but without Fluo-3/AM, and incubate for 10 min at 37° C. Wash cells three times with a Denley cell washer (Labsystems) with Krebs Ringer Henscleit (KRH; 118 mM NaCl, 4.6 mM KCl, […] NaHCO3, 1 mM KH2PO4, 1.1 mM glucose, 1.1 mM MgCl2) containing 0.1% BSA, […], and 20 mM HEPES pH 7.4 (buffer A). After the last wash aspirate down to a final volume of 100 μl.
4. Prepare plates of potential ligands, tissue extracts, or compound libraries in 96-well polypropylene microplates at three times the final concentration in buffer A and warm to 37° C.
5. Place microplates containing Fluo-3 loaded cells and the ligand plates in FLIPR and monitor. At initiation of the fluorescence recording read measurements every 1 s for 60 s and then every 3 s for the following 60 s. […] FLIPR software normalizes fluorescent readings to give equivalent readings for all wells at zero time.

[3] = treating gastroesophageal reflux disease; Van Her Waarde et al. 2000; cited from earlier work

Compound: CC[C@H]1OC(=O)[C@H](C)[C@@H](OC2C[C@@](C)(OC)[C@@H](O)[C@H](C)O2)[C@H](C)[C@@H](OC2O[C@H](C)C[C@H](N(C)C)[C@H]2O)[C@]2(C)CC(C)=C(O2)[C@H](C)[C@@H](O)[C@]1(C)O (stereo partly drawn) [erythromycin 6,9-enol ether]
- efficacy index (human motilin receptor [1]): greater than 20,000
- potency (EC50) (human motilin receptor [2]): nanomolar range
- stability in acid (Acid stability): unstable in acid

- Ca2+ mobilization response (C3a receptor; C3a receptor co-expressed with Gα16 in HEK 293 cells): robust responses
- Ca2+ mobilization response (C3a receptor; C3a receptor expressed alone in HEK 293 cells): weak or no Ca^2+ mobilization responses
Compound: C3a: ligand of the C3a receptor

Compound: CC[C@H]1OC(=O)[C@H](C)[C@@H](OC2C[C@@](C)(OC)C[C@H](C)O2)[C@H](C)[C@@H](OC2O[C@H](C)C[C@H](N(C)CC)[C@H]2O)[C@]2(C)CC(C)=C(O2)[C@H](C)[C@@H](O)[C@H]1C (stereo partly drawn) [ABT-229]
- clinical efficacy [3]: lack of efficacy
